Our source for the melting point values is a melting point compilation (Tetko et al.; mined from patent text by program, amines drawn as free bases though some values may be those of a salt).

The melting point is the temperature of the solid-liquid transition. Compound `O=C(NCCc1ccccc1)c1ccccc1-c1ccccc1CNS(=O)(=O)c1cccc([N+](=O)[O-])c1` came in with a melting point of 145 °C. In the case of `O=C1CCCc2c1ccc(OCc1ccccc1)c2CBr`, the melting point lay in the range of 103 to 104 °C. In the case of `COC(=O)NCc1cc(C(C)=NOCc2cccc(C)n2)ccc1C` it was 72 to 75 °C. In the case of `CC(=O)C1CCC2C3CCC4CC(OC(=O)C(F)(F)F)CCC4(C)C3C(=O)CC12C` (stereo not drawn) it was 107 to 108 °C; in that of `COc1cc(CC(C)=O)ccc1OCCCN1CCC(c2noc3cc(F)ccc23)CC1`, 118 to 119 °C; in that of `Cc1cccc(-n2nccc2-c2nn(-c3cccc(C(F)(F)F)c3)ccc2=O)c1`, 142 to 143 °C.

For the compound `CCn1c2ccccc2c2cc(C=Cc3ccc(N)cc3)ccc21`, the melting point is 131 to 132 °C. In the case of `CC1(C(=O)O)CCCc2cc(C3CCCCC3)ccc21` (stereo not drawn) it was 128 to 129 °C. Next, `O=C1c2c(O)ccc(O)c2C(=O)c2c(NCCN(CCO)C(=O)C(F)(F)F)ccc(NCCN(CCO)C(=O)C(F)(F)F)c21`: 162 °C. In turn, `CCOC(=O)Cn1c(-c2ccc(Br)cc2)nc2cccnc21` showed a melting point of 138 to 139 °C. In the case of `Cc1ccc(OCCCN2CCN(c3ccc(Cl)nn3)CC2)cc1` it was 129 to 131 °C; in that of `c1ccc(C[C@@H]2CN3C(c4nnn[nH]4)=Nc4nc(C5CCCC5)[nH]c4C3=N2)cc1`, 268 to 270 °C.

`CCc1nn(-c2ccc(C(=N)N)cc2)c(=O)n1-c1ccc(CCC(=O)O)cc1`: the melting point was greater than 250 °C. `CC1(C)Oc2ccc(S(=O)(=O)C(F)(F)F)cc2C(N2Cc3cccc([N+](=O)[O-])c3C2=O)C1O` (stereo not drawn) yielded a melting point of 283 to 284 °C. With `CCCn1c(=O)c2c(nn3cc(C4CC4)[nH]c23)n(Cc2ccccc2)c1=O`, the melting point fell in the range of 264 to 265 °C. With `COc1cc(C=Cc2nc3c(s2)NCCCC3)ccc1O`, the melting point lay in the range of 175 to 178 °C. Next, `COc1cc2cc(-c3ccc(OCC(O)CNC(C)(C)C)cc3)n(C)c(=O)c2cc1OC` (stereo not drawn): 165 to 166 °C. Next, `CC(=NOCCOc1ccc(C(=O)O)c(OC(=O)c2ccc(-c3ccccc3)cc2)c1)c1ccccc1`: 158 to 159 °C; `CCNC(C)CN1CCc2c(c(=O)oc3ccccc23)C1` (stereo not drawn): 104 to 105 °C. As for `CNS(=O)(=O)c1c[nH]c(-c2ccc(Cl)cc2)n1`, the melting point fell in the range of 246 to 248 °C. Next, `S=C1Nc2ccccc2Cc2nccn21`: 182 to 183 °C. Next, `CS(=O)(=O)c1ccc(Oc2ccc(CC(=O)O)cc2)cc1`: 122 to 125 °C; `COc1nsnc1S(C)(=O)=O`: 110 to 112 °C; `N#Cc1nn(-c2c(Cl)cc(-c3ccc(C(F)(F)F)cc3)cc2Cl)c(N)c1S(=O)(=O)C(F)(F)F`: 197 to 202 °C.

Compound `CCN(CC)c1ccc(/C=C(\C)c2ccc3c(c2)C(C)(C)CCC3(C)C)cc1` yielded a melting point of 89 to 90 °C.

`CCOC(=O)c1cc2cc(C=CC(=O)c3ccc(C)cc3)cc(C(C)CC)c2oc1=O` (stereo not drawn) yielded a melting point of 155 to 156 °C. `CCCCCS(=O)(=O)NC(=O)CCc1ccc(OC(C)C)cc1Oc1ncc(C(F)(F)F)cc1Cl`: the melting point fell in the range of 94 to 95 °C.

The compound `Cc1c(Cl)cc(C(=O)O)c(Cl)c1[N+](=O)[O-]` gave a melting point of 210 to 218 °C. Turning to `COc1ccc(C[C@]2(C)C(=O)O[C@@H](c3ccccc3)N2C(=O)c2ccccc2)cc1`, the melting point fell in the range of 128 to 129 °C. For the compound `O=C(Oc1ccccc1)c1ccc2c(c1)S(=O)(=O)NCN2C1CC1`, the melting point was 160 to 162 °C. The compound `Cc1c(O)cccc1OCc1ccccc1` displayed a melting point of 58 to 59 °C. Take `COc1cc2nc(CSc3ncnc4[nH]cnc34)n(-c3ccccc3Cl)c(=O)c2cc1OC`: the melting point lay within 160 to 180 °C. `N#Cc1ccc2c(c1)CCCC2(O)c1ccns1` (stereo not drawn) showed a melting point of 182 to 184 °C. As to `O=c1n(CCCCCl)nc2n1-c1ccccc1OC2`, the melting point fell in the range of 56 to 57 °C. `Cc1c(Cl)cc(C(C)(C)C)c(O)c1-c1nc2cc(OC(F)(F)F)ccc2[nH]1` came in with a melting point of 243 to 244 °C. In the case of `CCNC(=S)NS(=O)(=O)c1cnccc1NC1CCCCCCC1` it was 196 to 198 °C; in that of `Cc1ccc(-c2cnccn2)cc1`, 54 to 55 °C; in that of `CC(C)Nc1ccc([N+](=O)[O-])cc1C(=O)c1ccccc1`, 155 °C. In the case of `CN1CCN(c2cc(Cl)cc3c2c(=O)n(Cc2cccc(Cl)c2)c(=O)n3Cc2ccccc2)CC1` it was 165 to 169 °C.

Compound `COc1ccc(S(=O)(=O)N2c3ccccc3-c3ccccc3C2C)cc1OC` (stereo not drawn) had a melting point of 131 to 133 °C. On to `Cn1c(SC(Cl)=C(Cl)C#N)nnc1C(F)(F)F`, for which the melting point lay in the range of 90 to 94 °C. `CCOCc1nc2c(N)nc(C)c(C)c2n1CCNC(=O)N1CCOCC1` yielded a melting point of 179 to 181 °C. In the case of `CSc1cccc(NC(=O)N(O)C2CCCCC2)c1` it was 147 to 148 °C; in that of `CN1C(=O)C(NC(=O)CCCCc2ccccc2)N=C(N2CCCCCC2)c2ccccc21` (stereo not drawn), 140 to 141 °C. Next, `O=C1CCCN1C(=O)c1ccc(OCc2ccccc2)cc1`: 115 to 117 °C; `COc1cc(OC)c(S(C)(=O)=O)cc1C(=O)NCC1CCCN1C1CCCC1` (stereo not drawn): 198 °C. In the case of `FC(F)Oc1n[nH]cc1-c1ccccc1` it was 125 °C; in that of `O=C(c1ccccc1)n1c(SC(F)(F)F)cc(-c2ccc(F)cc2)c1-c1ccc(F)cc1`, 106 °C. Take `CN1Cc2c(C#N)ncn2-c2cccc(Br)c2C1=O`: the melting point was in the range of 226 to 228 °C. In the case of `O=[N+]([O-])c1ccc(S(=O)(=O)NCCc2ccccc2)c([N+](=O)[O-])c1`, the melting point is 127 to 128 °C. Next, `NC(=O)CCN1CC(O)CC1=O` (stereo not drawn): 99 to 100 °C; `CCCCCCCCCCCCCCN(C)c1ccc(N)cc1C(=O)O`: 79 °C; `COC(=O)c1ccc(CNS(C)(=O)=O)cc1N`: 120 to 121 °C.

Compound `N#CC(C#N)=Cc1ccc(OS(=O)(=O)c2cc(Cl)c(Cl)cc2Cl)cc1` registered a melting point of 165 to 166 °C. `CCCC1(C)CC(C)c2ccc(O)c(C)c2O1` (stereo not drawn) returned a melting point of 60 °C. As to `COCCNC(=O)c1cccc(-c2ccc3c(c2)N(c2cccc(Cl)c2Cl)CC3)c1`, the melting point was in the range of 99 to 100 °C. In the case of `CC1CC2C3CCC4=CC(=O)CCC4=C3C(c3ccc(-c4cccnc4)cc3)CC2(C)C1C(=O)C1CC1` (stereo not drawn) it was 206 °C; in that of `CC1(C)CCC(C)(C)c2cc(-c3cc(C=CC(=O)O)ccc3O)c(OCc3ccc(F)cc3)cc21`, 123 to 125 °C. In the case of `CCOc1cccc(C)c1S(=O)(=O)NC(=O)n1nc(OCC)n(C)c1=O` it was 160 °C; in that of `CC1(C)OC(=O)C(C(=O)Nc2ccc(Cl)c(Cl)c2)=C(O)O1`, 132 to 134 °C. In the case of `C=CCO[C@@H]1C[C@H]2[C@H](C(=O)O)[C@H]2[C@]1(N)C(=O)O` it was greater than 250 °C. Regarding `CCOC(=O)C=Nc1cc(Cl)ccc1C(=O)O`, the melting point was 166 to 167 °C. As to `C[Si](C)(C)c1cc(Cl)sc1C(=O)NCCO`, the melting point lay in the range of 110 to 114 °C.
